Measurements from ChEMBL document CHEMBL1148005, “A cell-permeable inhibitor and activity-based probe for the caspase-like activity of the proteasome” (Bioorg Med Chem Lett, 2007).
The source made the active and inactive calls. The calls are words filed in the database; no cut-off is given here.

Experiments:
Format in all cases: tissue-based
Settings in all cases: Muscle tissue
Oryctolagus cuniculus [1] = species: Oryctolagus cuniculus; assay: Inhibition of caspase-like activity of rabbit muscle 26S proteasome after 30 mins
Oryctolagus cuniculus [2] = species: Oryctolagus cuniculus; assay: Inhibition of trypsin-like activity of rabbit muscle 26S proteasome upto 500 uM after 30 mins
Oryctolagus cuniculus [3] = species: Oryctolagus cuniculus; assay: Inhibition of chymotrypsin-like activity of rabbit muscle 26S proteasome upto 500 uM after 30 mins
Oryctolagus cuniculus [4] = species: Oryctolagus cuniculus; assay: Inhibition of trypsin-like activity of rabbit muscle 26S proteasome at 50 to 100 uM after 30 mins
Oryctolagus cuniculus [5] = species: Oryctolagus cuniculus; assay: Inhibition of caspase-like activity of rabbit muscle 26S proteasome at 10 to 20 uM after 30 mins
Oryctolagus cuniculus [6] = species: Oryctolagus cuniculus; assay: Inhibition of caspase-like activity of rabbit muscle 26S proteasome at 50 to 100 uM after 30 mins

Row | SMILES | Activity (Oryctolagus cuniculus [1]) | Activity (Oryctolagus cuniculus [2]) | Activity (Oryctolagus cuniculus [3]) | Activity (Oryctolagus cuniculus [4]) | inhibition (Oryctolagus cuniculus [5]) | Activity (Oryctolagus cuniculus [6])
1 | CCCC[C@H](NC(=O)[C@@H]1CCCN1C(=O)[C@H](C)NC(C)=O)C(=O)N[C@H](/C=C/S(=O)(=O)c1ccc(O)cc1)CC(C)C | Active | inactive | inactive | Active | > 90% | Active
2 | CCCC[C@H](NC(=O)[C@@H]1CCCN1C(=O)[C@H](C)NC(=O)CN=[N+]=[N-])C(=O)N[C@H](/C=C/S(=O)(=O)c1ccc(O)cc1)CC(C)C | Active | – | – | – | – | –
